Assay results: patent publication US20160263072A1, “MONOACYLGLYCEROLS AND FAT-SOLUBLE NUTRIENTS FOR USE IN THE TREATMENT OF MALABSORPTION HAVING A NON-MECHANICAL BASIS” (NESTEC S.A., priority 2013, published 2016)

How the values were obtained:
[1] = Lipid maldigestion or malabsorption rat model (XENICAL-induced): EPA level in red blood cell and tissue lipids; type: in vivo; conditions: rats
Method: The concept was tested in a lipid maldigestion or malabsorption rat model. The maldigestion or malabsorption condition was obtained using XENICAL® (ORLISTAT), a pancreatic and gastric lipases inhibitor (tetrahydrolipstatin; see FIG. 7). Rats were fed during 21 days with long-chain polyunsaturated fatty acid (LC-PUFA) supplements containing mainly eicosapentaenoic (EPA) acid. Fish oil was used as a source of triacylglycerols, and different EPA glycerides were evaluated. XENICAL® (ORLISTAT) was given at a level sufficient to decrease lipid absorption by 40%. A group receiving fish oil without XENICAL® (ORLISTAT) was used as a positive control. At different time intervals (D3, D7, […]), the fatty acid profiles of red blood cell and plasma lipids were determined. At the end of the experiment, the fatty acid profiles of different tissues were determined. The main objective was to follow the level of EPA in red blood cell and plasma lipids. The main comparison evaluated was the difference in EPA level between the group receiving EPA-containing sn-1(3) MAG in combination with XENICAL® (ORLISTAT) and the positive control group (fish oil+XENICAL® (ORLISTAT)).

[2] = Clinical study: delivery of EPA by sn-1(3) MAG vs fish oil (TAG) under XENICAL (ORLISTAT)-induced lipid maldigestion; type: in vivo, humans
Method: This clinical study compared the efficacy of sn-1(3) MAG and fish oil (TAG) in delivering EPA in humans under lipid maldigestion conditions induced by XENICAL® (ORLISTAT). The comparison was tested in volunteers having a BMI of 37-40 kg/m^2 and treated with ORLISTAT® to induce lipid maldigestion or not treated with XENICAL® (ORLISTAT). The primary objective was to assess accretion of EPA in erythrocytes over 21 days when consumed as fish oil (TAG) or sn-1(3) MAG. The secondary objectives were to assess accretion of EPA in plasma over 21 days and also to assess the pharmacokinetics of EPA after an acute dose either in the form of sn-1(3) MAG or TAG (AUC in chylomicrons over 10 hours postprandial).

Row | SMILES | EPA incorporation in red blood cells ([1]; day 7, fish oil + XENICAL vs fish oil without XENICAL) | incorporation of LC-PUFAs in tissue ([1]; conditions of lipid maldigestion or malabsorption) | chronic effect: accretion of EPA in erythrocytes after 21 days ([2]; humans, with XENICAL, vs fish oil and XENICAL, p=0.0001) | chronic effect: accretion of EPA in plasma after 21 days ([2]; humans, with XENICAL, vs fish oil and XENICAL, p=0.0003) | carrier for EPA compared with fish oil (TAG) ([2]; obese subjects treated with XENICAL)
1 | CCCCCCCCCCC[C@@H](C[C@@H]1OC(=O)[C@H]1CCCCCC)OC(=O)[C@H](CC(C)C)NC=O [XENICAL® (ORLISTAT), tetrahydrolipstatin, reference compound] | decreases EPA incorporation in red blood cells | – | – | – | –
2 | CC/C=C\C/C=C\C/C=C\C/C=C\C/C=C\CCCC(=O)OC[C@@H](O)CO [sn-1(3) MAG, 1,3 MAG-EPA] | – | improved | statistically significant | statistically significant | better carrier for EPA than fish oil
